Assay results: patent publication US5428036A (H. Lundbeck A/S, priority 1990, dated 1995)

Assays:
[1] = Sertindole concentration in dog serum after i.m. depot dosing in Viscoleo (HPLC); assay type: in vivo, Beagle dogs; details: i.m. depot formulation in dogs; FIG. 1
Procedure: The depot effects of the compounds of the invention were determined as described in the following example:
Seven Beagle dogs were used. One male and one female dog were used for each preparation exept for 1a where only one female dog was used. The compounds were dissolved in Viscoleo®. One ml Viscoleo® equivalent 1 kg dog. The dogs were dosed i.m. approx. 5 ml in each thigh.
Blood samples were drawn at 1,2, 4, 8, and 24 hours after dosing, and 2, 4, 7, 10, and 14 days after dosing.
The serum samples were analyzed by HPLC using a system consisting of a Spherisorb S5W column (25 cm×4.6 mm) and a Hewlett Packard HP 1090 chromatograph with a HP 1050 UV-absorbance detector with a measuring wavelength of 254 nm. Elution was performed with n-heptane/2-propanol/conc. ammonia/water in the ratio 100/18.4/0.5/0.2, v/v as eluent at ambient temperature with a pressure of approximately 70 bar and a flow rate of 1 ml/min.

[2] = target: T1, serotonin S2 (5-HT2) receptors (Rattus norvegicus, UniProt P14842); experiment: Inhibition of 3H-ketanserin binding to serotonin S2 (5-HT2) receptors in rat cortex in vitro; details: for IC50: 0.5 nM 3H-ketanserin, rat cortex membranes, 37° C., 30 min
T1 construct: from tissue; host or cells: cerebral cortex membranes of male Wistar (Mol:Wist) rats
Procedure: (§1) The prodrugs of the invention were tested in vitro for 5-HT2 receptor affinity (^3 H-ketanserin binding) and for 5-HT2 antagonistic effect in vivo (antagonism of quipazine induced head twiches).
Inhibition of ^3 H-ketanserin Binding to Serotonin S2 (5-HT2)Receptors in Rat Cortex in vitro
By this method the inhibition by drugs of the binding of ^3 H-Ketanserin (0,5 nM) to serotonin S2 (5-HT2) receptors in membranes from rat corex is determined in vitro. Method in Hyttel, Pharmacol. & Toxicol, 61, 126-129 1987.
Male Wistar (Mol:Wist) rats are sacrificed and cortical tissue is dissected and weighed. The tissue is homogenized (Ultra Turrax, 10 sec.) in 10 ml of ice-cold 50 mM tris buffer pH 7.7 (at 25° C.). The centrifuge glass ware used in this step has been rinsed by sonication for 10 min. in ethanol. The homogenate is centrifuged twice at 20,000 g for 10 min. at 4° C. with rehomogenization of the pellet in 10 ml ice-cold buffer. The final pellet is homogenized in 500 vol (w/v) ice-cold buffer. Incubation tubes kept on ice in triplicate receive 100 μl of drug solution in water (or water for total binding) and […] of tissue suspension (final tissue content corresponds to 4 mg original tissue). The binding experiment is initiated by addition of 100 μl of ^3 H-Ketanserin (final concentration 0.5 nM) and by placing the tubes in a 37° C. water bath. After incubation for 30 min. the samples are filtered under vacuum (0-50 mBar) through Whatman GF/F filters (25 mm). The tubes are rinsed with 5 ml ice-cold buffer which are then poured on the filters. Thereafter, the filters are washed with 2×5 ml of buffer. The filters are placed in counting vials and 4 ml of appropriate scintillation fluid (e.g. Picofluor™ 15) are added. After shaking for 1 h and storage 2 hrs in the dark the content of radioactivity is determined by liquid scintillation counting. Specific binding is obtained by subtracting the nonspecific binding in the presence of 1 μM mianserin. For determination of the inhibition of binding five concentrations of drugs covering 3 decades are used.
The IC50 value is determined as the concentration at which the binding is 50% of the total binding in control samples minus the nonspecific binding in the presence of 1 μM mianserin.
^3 H-Ketanserin=[ethylene-^3 H]-ketanserin hydrochloride from New England Nuclear, specific activity 60-80 Ci/mmol.

5-HT2 = target: T2, 5-HT2 (Rattus norvegicus, UniProt P14842); experiment: Quipazine inhibition (antagonism of quipazine induced head twitches in rats); assay type: in vivo; details: for ED50: po, p.o. 24 hrs before quipazine (6.8 mg/kg, s.c.), head twitches, rat
T2 construct: Four rats, male Wistar (Mol:Wist) SPF rats, are used at each dose level; from tissue; host or cells: living male Wistar (Mol:Wist) SPF rats; receptor endogenous to the animal
Procedure: as §1
Quipazine is a 5-HT2 agonist, which induces head twitches in rats. The test is a test for 5-HT2 -antagonistic effect measuring the ability to inhibit head twitches. The method and test results for some reference substances are published by Arnt et al. (Drug Dev. Res., 16, 59-70, 1989).
Test substance is given p.o. 24 hrs before quipazine administration (6.8 mg/kg, s.c., dimaleate). Four rats, male Wistar (Mol:Wist) SPF rats, are used at each dose level. A control group is included each test day. After quipazine administration the rats are individually placed in the observation cages and head twitches are counted in an observation period of 10 min. 30-40 min. after injection of quipazine.
Total number of head twitches in each group are calculated and the result for each dose is expressed as percent of the response in the control group. ED50 values are calculated by log-probit analysis. The test must be repeated if the average number of head twitches is lower than 9 in the control group.

T1 sequence (P14842 whole entry): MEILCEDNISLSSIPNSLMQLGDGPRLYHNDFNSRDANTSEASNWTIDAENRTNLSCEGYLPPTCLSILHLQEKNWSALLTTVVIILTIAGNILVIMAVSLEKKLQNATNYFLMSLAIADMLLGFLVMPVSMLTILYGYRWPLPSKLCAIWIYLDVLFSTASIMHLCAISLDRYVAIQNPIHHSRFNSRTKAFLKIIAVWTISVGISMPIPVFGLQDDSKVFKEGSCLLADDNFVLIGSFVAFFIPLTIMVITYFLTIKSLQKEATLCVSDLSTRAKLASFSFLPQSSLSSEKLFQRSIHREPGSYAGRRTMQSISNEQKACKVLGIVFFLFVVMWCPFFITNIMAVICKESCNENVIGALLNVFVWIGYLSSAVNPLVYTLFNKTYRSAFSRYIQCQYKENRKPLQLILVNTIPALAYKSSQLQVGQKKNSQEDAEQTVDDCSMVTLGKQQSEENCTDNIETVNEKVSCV
T2 sequence (P14842 whole entry): as above

Serotonin S2 (5-HT2) antagonism in vitro ([2]; in vitro, statement in words) | Serotonin S2 (5-HT2) antagonism in vivo (5-HT2; in vivo, statement in words) | Compound | decomposition to sertindole after injection of a depot formulation [1] | IC50 [2] [nM] | ED50 (5-HT2) [µmol/kg]
 |  | CC(=O)N1CCN(CCN2CCC(c3cn(-c4ccc(F)cc4)c4ccc(Cl)cc34)CC2)C1=O [Compound 1a] | decompose to sertindole after injection of a depot formulation | 1.2 | 0.029
 |  | CCCCCCCCCC(=O)N1CCN(CCN2CCC(c3cn(-c4ccc(F)cc4)c4ccc(Cl)cc34)CC2)C1=O [Compound 1b, 5-chloro-3-[1-[2-(3-decanoyl-2-imidazolidinon-1-yl)ethyl]-4-piperidyl]-1-(4-fluorophenyl)-1H-indole] |  | 57 | 0.09
 |  | CCCCCCCCCCCCCCCC(=O)N1CCN(CCN2CCC(c3cn(-c4ccc(F)cc4)c4ccc(Cl)cc34)CC2)C1=O [Compound 1e] |  | 47 | 0.77
 |  | O=C(c1ccccc1)N1CCN(CCN2CCC(c3cn(-c4ccc(F)cc4)c4ccc(Cl)cc34)CC2)C1=O [Compound 1f, 3-[1-[2-(3-benzoyl-2-imidazolidinon-1-yl)ethyl]-4-piperidyl]-5-chloro-1-(4-fluorophenyl)-1H-indole] |  | 9.3 | 0.05
 |  | CCCCCCCC/C=C\CCCCCCCC(=O)N1CCN(CCN2CCC(c3cn(-c4ccc(F)cc4)c4ccc(Cl)cc34)CC2)C1=O [Compound 2a] |  | 260 | 0.55
 |  | CN(C)C(=O)N1CCN(CCN2CCC(c3cn(-c4ccc(F)cc4)c4ccc(Cl)cc34)CC2)C1=O [Compound 4a, 5-Chloro-3-[1-[2-(3-dimethylcarbamyl-2-imidazolidinon-1-yl)ethyl]-4-piperidyl]-1-(4-fluorophenyl)-^1 H-indole] |  | 0.9 | 0.24
 |  | CCCCCCCCCCOC(=O)N1CCN(CCN2CCC(c3cn(-c4ccc(F)cc4)c4ccc(Cl)cc34)CC2)C1=O [Compound 4d, 5-chloro-3-[1-[2-[3-(1-decyl)oxycarbonyl-2-imidazolidinon-1-yl]ethyl]-4-piperidyl]-1-(4-fluorophenyl)-1H-indole] |  | 13 | 1.1
 |  | O=C1N(CO)CCN1CCN1CCC(c2cn(-c3ccc(F)cc3)c3ccc(Cl)cc23)CC1 [Compound 5a, 5-Chloro-1-(4-fluorophenyl)-3-[1-[2-(3-hydroxymethyl-2-imidazolidinon-1-yl)ethyl]-4-piperidyl]-1H-indole] |  | 0.47 | 0.037
 |  | O=C1N(CCN2CCC(c3cn(-c4ccc(F)cc4)c4ccc(Cl)cc34)CC2)CCN1CN1CCOCC1 [Compound 6a, 5-Chloro-1-(4-fluorophenyl)-3-[1-[2-[3-(1-morpholinomethyl)-2-imidazolidinon-1-yl]ethyl]-4-piperidyl]-1H-indole] |  | 0.97 | 0.079
 |  | CN(C)CN1CCN(CCN2CCC(c3cn(-c4ccc(F)cc4)c4ccc(Cl)cc34)CC2)C1=O [Compound 6b, 5-chloro-3-[1-[2-(3-dimethylaminomethyl-2-imidazolidinon-1-yl)ethyl]-4-piperidyl]-1-(4-fluorophenyl)-1H-indole] |  | 0.6 | 
 |  | CCOCN1CCN(CCN2CCC(c3cn(-c4ccc(F)cc4)c4ccc(Cl)cc34)CC2)C1=O [Compound 7a, 5-Chloro-3-[1-[2-(3-ethoxymethyl-2-imidazolidinon-1-yl)ethyl]-4-piperidyl]-1-(4-fluorophenyl)-1H-indole] |  | 1.2 | 0.081
 |  | CCCCCCCCCCOCN1CCN(CCN2CCC(c3cn(-c4ccc(F)cc4)c4ccc(Cl)cc34)CC2)C1=O [Compound 7d] |  | 49 | 0.15
 |  | CC(C)c1ccc(C(=O)N2CCN(CCN3CCC(c4cn(-c5ccc(F)cc5)c5ccc(Cl)cc45)CC3)C2=O)cc1 [Compound 8a, 5-Chloro-1-(4-fluorophenyl)-3-[1-[2-[3-(4-isopropylbenzoyl)-2-imidazolidinon-1-yl]ethyl]-4-piperidyl]-1H-indole] |  | 20 | 0.12
 |  | CC(=O)Oc1ccccc1C(=O)N1CCN(CCN2CCC(c3cn(-c4ccc(F)cc4)c4ccc(Cl)cc34)CC2)C1=O [Compound 8c] |  | 24 | 0.057
 |  | CCCC(=O)N1CCN(CCN2CCC(c3cn(-c4ccc(F)cc4)c4ccc(Cl)cc34)CC2)C1=O [Compound 8d, 3-[1-[2-(3-butanoyl-2-imidazolidinon-1-yl)ethyl]-4-piperidyl]-5-chloro-1(4-fluorophenyl)-1H-indole] |  | 5.6 | 0.014
 |  | CCCCCC(=O)N1CCN(CCN2CCC(c3cn(-c4ccc(F)cc4)c4ccc(Cl)cc34)CC2)C1=O [Compound 8e, 5-chloro-1-(4-fluorophenyl)-3-[1-[2-(3-hexanoyl-2-imidazolidinon-1-yl)ethyl]-4-piperidyl]-1H-indole] |  | 38 | 0.039
 |  | CCCCCCCC(=O)N1CCN(CCN2CCC(c3cn(-c4ccc(F)cc4)c4ccc(Cl)cc34)CC2)C1=O [Compound 8f, 5-chloro-1-(4-fluorophenyl)-3-[1-[2-(3-octanoyl-2-imidazolidinon-1-yl)ethyl]-4-piperidyl]-1H-indole] |  | 140 | 0.092
very potent | very potent | O=C1NCCN1CCN1CCC(c2cn(-c3ccc(F)cc3)c3ccc(Cl)cc23)CC1 [sertindole, 5-chloro-1-(4-fluorophenyl)-3-[1-[2-(2-imidazolidinon-1-yl)ethyl]-4-piperidyl]-1H-indole, reference compound] |  |  | 
